Assay results published in US9382204B2, “Inhibitors targeting the DNA-binding domain of human STAT3 for treatment of metastatic cancers” (Indiana University Research and Technology Corporation, priority 2013, dated 2016).

Test system: STAT3
Assay: STAT3-dependent luciferase reporter assay in MDA-MB-231-STAT3 stable cells
Assay type: cell-based, human
Details: 20 μM; for Rel. luciferase activity (%) 1: experiment 1, relative to DMSO; for Rel. luciferase activity (%) 2: experiment 2, relative to DMSO; for Rel. luciferase activity (%) 3: experiment 3, relative to DMSO; for Rel. luciferase activity (%) Mean: mean of experiments, relative to DMSO; for inhibition of luciferase expression compared to DMSO vehicle control: significant = p value less than 0.05
Method: FIG. 12. Identification of active inS3-54 analogues. (A) Effects of inS3-54 analogues on STAT3-dependent luciferase expression. MDA-MB-231 cells with stable STAT3-dependent luciferase expression were treated with DMSO control, 20 μM inSTAT3-54 or its analogues (A1-A79), followed by measurement of luciferase activity. (*p<0.05; **p<0.01; ***p<0.001).
MDA-MB-231-STAT3 stable cell line with high level of STAT3-dependent luciferase expression was exposed to candidate compounds at 20 μM in DMSO for 48 hours based on previous studies, and luciferase activity was measured using a luciferase assay kit (Promega, USA), following manufacturer's instructions. The final DMSO concentration in this and following assays was 0.1% (vol/vol).

Row | SMILES | Rel. luciferase activity (%) 1 [%] | Rel. luciferase activity (%) 2 [%] | Rel. luciferase activity (%) 3 [%] | Rel. luciferase activity (%) Mean [%] | inhibition of luciferase expression compared to DMSO vehicle control
1 | COC(=O)c1ccc(N2C(=O)C(=Cc3ccc([N+](=O)[O-])cc3)C=C2c2ccccc2)cc1 [Compound A43] | 98.6 | 100.4 | 66.9 | 88.6 | 
2 | COc1ccc(C=C2C=C(c3ccccc3)N(c3ccc4ccccc4c3)C2=O)cc1 [Compound A56] | 150.7 | 143.4 | 76.2 | 123.4 | 
3 | CC(=O)Nc1ccc(N2C(=O)C(=Cc3ccc([N+](=O)[O-])cc3)C=C2c2ccccc2)cc1 [Compound A47] | 106.8 | 108.8 | 43.3 | 86.3 | 
4 | O=C1C(=Cc2ccc(Cl)cc2)C=C(c2ccccc2)N1c1ccccc1Cl [Compound A27] | 48.5 | 83.6 | 74.2 | 68.8 | significantly inhibited
5 | COc1ccc(C=C2C=C(c3ccccc3)N(c3ccccc3O)C2=O)cc1 [Compound A73] | 72.9 | 97.8 | 103.4 | 91.3 | 
6 | COc1ccc(N2C(=O)C(=Cc3ccc(Cl)cc3)C=C2c2ccccc2)cc1 [Compound A17] | 103.2 | 120.5 | 104.2 | 109.3 | 
7 | O=C1C(=Cc2ccc(-c3ccc([N+](=O)[O-])cc3)o2)C=C(c2ccccc2)N1c1ccccc1 [Compound A62] | 71.1 | 111.3 | 52.2 | 78.2 | 
8 | COC(=O)c1cccc(N2C(=O)C(=Cc3ccc([N+](=O)[O-])cc3)C=C2c2ccccc2)c1 [Compound A34] | 61.1 | 103.6 | 80.8 | 81.9 | 
9 | O=C1C(=Cc2ccc([N+](=O)[O-])cc2)C=C(c2ccccc2)N1c1ccc(Cl)c(Cl)c1 [Compound A48] | 87.5 | 108.6 | 42.5 | 79.5 | 
10 | O=C1C(=Cc2ccc([N+](=O)[O-])cc2)C=C(c2ccccc2)N1c1ccc(Cl)c(Cl)c1 [Compound A39] | 119.6 | 129.6 | 65.9 | 105.1 | 
11 | COC(=O)c1ccc(N2C(=O)C(=Cc3ccc(Cl)cc3)C=C2c2ccccc2)cc1 [Compound A23] | 99.2 | 103.2 | 69.4 | 90.6 | 
12 | CN(C)c1ccc(N2C(=O)C(=Cc3ccc([N+](=O)[O-])cc3)C=C2c2ccccc2)cc1 [Compound A77] | 109.7 | 103.0 | 77.0 | 96.6 | 
13 | O=C1C(=Cc2ccc(-c3ccc([N+](=O)[O-])cc3)o2)C=C(c2ccccc2)N1Cc1ccccc1 [Compound A64] | 79.8 | 109.6 | 49.0 | 79.5 | 
14 | O=C1C(=Cc2ccc([N+](=O)[O-])cc2)C=C(c2ccccc2)N1c1ccc(Nc2ccccc2)cc1 [Compound A49] | 93.7 | 124.2 | 90.2 | 102.7 | 
15 | COc1ccccc1N1C(=O)C(=Cc2ccc([N+](=O)[O-])cc2)C=C1c1ccccc1 [Compound A32] | 58.2 | 99.2 | 58.6 | 72.0 | 
16 | COc1ccc(N2C(=O)C(=Cc3ccc(-c4ccc([N+](=O)[O-])cc4)o3)C=C2c2ccccc2)cc1 [Compound A7] | 99.6 | 109.4 | 72.3 | 93.8 | 
17 | O=C1C(=Cc2ccc(Cl)cc2)C=C(c2ccccc2)N1c1ccc(-c2ccccc2)cc1 [Compound A20] | 63.2 | 85.1 | 63.8 | 70.7 | significantly inhibited
18 | COc1ccc(C=C2C=C(c3ccccc3)N(c3cccc(Cl)c3Cl)C2=O)cc1 [Compound A58] | 78.9 | 81.8 | 36.8 | 65.8 | 
19 | COC(=O)c1cccc(N2C(=O)C(=Cc3ccc(OC)cc3)C=C2c2ccccc2)c1 [Compound A50] | 168.6 | 187.0 | 153.6 | 169.7 | 
20 | O=C1C(=Cc2ccc(-c3ccc([N+](=O)[O-])cc3)o2)C=C(c2ccccc2)N1c1ccccc1Cl [Compound A14] | 140.4 | 129.3 | 72.3 | 114.0 | 
21 | COc1ccc(C=C2C=C(c3ccccc3)N(c3ccccc3Cl)C2=O)cc1 [Compound A57] | 59.5 | 97.9 | 51.5 | 69.6 | 
22 | O=C1C(=Cc2ccc([N+](=O)[O-])cc2)C=C(c2ccccc2)N1c1ccc2ccccc2c1 [Compound A46] | 156.2 | 147.8 | 64.9 | 122.9 | 
23 | O=C(O)c1cccc(N2C(=O)C(=Cc3ccc(-c4cc(Cl)ccc4Cl)o3)C=C2c2ccccc2)c1 [Compound A2] | 120.3 | 107.5 | 114.1 | 114.0 | 
24 | O=C1C(=Cc2ccc([N+](=O)[O-])cc2)C=C(c2ccccc2)N1Cc1ccccc1 [Compound A36] | 46.4 | 87.4 | 66.3 | 66.7 | significantly inhibited
25 | CC(C)(C)c1ccc(N2C(=O)C(=Cc3ccc(Cl)cc3)C=C2c2ccccc2)cc1 [Compound A21] | 158.0 | 174.7 | 159.1 | 163.9 | 
26 | O=C1C(=Cc2ccc([N+](=O)[O-])cc2)C=C(c2ccccc2)N1c1ccc(Cl)cc1 [Compound A31] | 122.8 | 124.5 | 49.9 | 99.1 | 
